Marks after values point to notes of the source that are not given here.
Legend:
[1] = target: T1, rat GLT-1 (Rattus norvegicus, UniProt P31596); experiment: Activating action for glia type glutamic acid transporter (GLT-1): [3H]-glutamate intake in COS-7 cells; type: cell-based; details: test compound 100 μM, treated from 1 hour before [3H]-glutamate (2 μM), 3 min uptake; COS-7 cells expressing rat GLT-1; percentage relative to solvent-treated group
T1 construct: expressed in transfected cells; host or cells: COS-7 cells
T1 sequence (P31596 whole entry): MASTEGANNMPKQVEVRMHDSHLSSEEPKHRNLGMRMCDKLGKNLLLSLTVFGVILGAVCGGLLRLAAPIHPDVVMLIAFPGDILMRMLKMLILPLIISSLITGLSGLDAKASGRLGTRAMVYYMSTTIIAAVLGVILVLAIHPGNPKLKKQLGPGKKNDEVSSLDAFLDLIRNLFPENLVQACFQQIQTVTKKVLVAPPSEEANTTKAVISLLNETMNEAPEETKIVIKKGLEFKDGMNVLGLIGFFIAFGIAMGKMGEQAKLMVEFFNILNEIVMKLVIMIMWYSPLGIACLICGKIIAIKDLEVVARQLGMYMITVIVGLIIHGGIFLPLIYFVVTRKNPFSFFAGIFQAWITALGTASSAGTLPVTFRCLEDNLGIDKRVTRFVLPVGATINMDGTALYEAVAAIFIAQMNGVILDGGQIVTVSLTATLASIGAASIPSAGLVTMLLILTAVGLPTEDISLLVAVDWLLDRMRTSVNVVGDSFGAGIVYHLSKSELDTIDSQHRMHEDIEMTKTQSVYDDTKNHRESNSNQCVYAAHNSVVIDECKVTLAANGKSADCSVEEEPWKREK
Procedure: Test Example 1 Activating Action for Glia Type Glutamic Acid Transporter (GLT-1)
Activating action for GLT-1 was evaluated by a test using COS-7 cells into which rat GLT-1 had been introduced. To COS-7 cells capable of expressing GLT-1 was added a [^3H]-glutamate-containing KRH solution (200 μl, final concentration: 2 μM). 3 minutes later, the ^3H amount was measured using a scintillation counter. A test compound (100 μM) was dissolved in the KRH solution and a treatment was conducted from 1 hour before the addition of [^3H]-glutamate. The action of the test compound for intake of glutamic acid was expressed as a percentage relative to the glutamic acid intake ability of solvent-treated group.
Glutamic acid intake (%)=[test compound (dpm)/control (dpm)]×100
This test was conducted based on a method by Shimada et al. [Eur. J. Pharmacol., 386, 263-270 ([…])].

[2] = system: rat models of middle cerebral artery obstruction; experiment: Action for cerebral infarct caused by middle cerebral artery obstruction in rat; type: in vivo; details: male SD rats, left MCA obstruction, brain taken 24 hours after obstruction, TTC
Procedure: Test Example 2 Action for Cerebral Infarct Caused by Middle Cerebral Artery Obstruction in Rat
Preparation of rat models having middle cerebral artery obstruction was conducted according to a method of Tamura et al. [J. Cerebral Blood Flow and Metabolism, 53-60 (1981)]. Specifically, 9 to 10 week-old male SD strain rats were used and their left middle cerebral arteries were obstructed under anesthesia by […] halosen. The compound of Example 5 or 26 was used as a test compound. The compound of Example 5 was intravenously administered in a dosage of 10 mg/kg for 24 hours from right after the obstruction; and the compound of Example 26 was intraperitoneally administered in a dosage of 50 mg/kg right after the obstruction and 6 hours after the obstruction. The brain of each rat was taken out 24 hours after the obstruction of rat middle cerebral artery, was divided into 6 parts, and was dyed with TTC. The section of each dyed part was photographed, and the focus of cerebral infarct was measured using an image analyzer. The rats in control group were as well subjected to middle cerebral artery obstruction.

[3] = system: ddy mice; experiment: Toxicity test in ddy mice; type: in vivo; details: 100 mg/kg (i. p.), 24 hours after administration
Procedure: Test Example 3 Toxicity Test
A test compound was administered into ddy mice to investigate its toxicity. The test compound was intraperitoneally administered in a dosage of 100 mg/kg; the mortality rate of the mice 24 hours after the administration was examined; and the toxicity of the test compound was evaluated from the mortality rate.

Row | SMILES | Glutamic acid intake (%) [1] [%] | melting point [°C] | further results
1 | O=C(c1cccnc1)N1CCC(c2ccccc2Cl)=N1 [Example 12, 1-nicotinoyl-3-(2-chlorophenyl)-2-pyrazoline] | 134 |  | 
2 | Cc1ccccc1C1=NN(C(=O)c2cccnc2)CC1 [Example 21, 1-nicotinoyl-3-(2-methylphenyl)-2-pyrazoline] | 129 |  | 
3 | O=C(c1cnccn1)N1CC2CS(=O)(=O)c3ccccc3C2=N1 (stereo not shown) [Example 42, 2-(2-pyrazinoyl)-3,3a-dihydro-2H,4H-[1]-benzothiopyrano-[4,3-c]pyrazole-S-dioxide] | 125 |  | 
4 | O=C(c1cccnc1)N1CCC(c2ccccc2F)=N1 [Example 8, 1-nicotinoyl-3-(2-fluorophenyl)-2-pyrazoline] | 134 |  | 
5 | COc1ccc(C2=NN(C(=O)c3cccnc3)CC2)c(OC)c1 [Example 16, 1-nicotinoyl-3-(2,4-dimethoxyphenyl)-2-pyrazoline] | 126 | 112 to 113 | 
6 | O=C(c1cnccn1)N1CC2CSc3ccccc3C2=N1 (stereo not shown) [Example 40, 2-(2-pyrazinoyl)-3,3a-dihydro-2H,4H-[1]-benzothiopyrano-[4,3-c]pyrazole] |  | 190 to 192 | 
7 | O=C(c1cccnc1)N1CCC(c2ccccc2C(F)(F)F)=N1 [Example 23, 1-nicotinoyl-3-(2-trifluoromethylphenyl)-2-pyrazoline] | 128 |  | 
8 | COc1ccccc1C1=NN(C(=O)c2cccnc2)CC1C (stereo not shown) [Example 15, 1-nicotinoyl-3-(2-methoxyphenyl)-4-methyl-2-pyrazoline] | 134 | 124 to 125 | 
9 | CCOc1ccc(C2=NN(C(=O)c3cccnc3)CC2)cc1 [Example 17, 1-nicotinoyl-3-(4-ethoxyphenyl)-2-pyrazoline] | 129 | 124 to 125 | 
10 | COc1ccccc1C1=NN(C(=O)c2cccnc2)CC1 [Example 14, 1-nicotinoyl-3-(2-methoxyphenyl)-2-pyrazoline] | 124 | 130 to 132 | 
11 | O=C(c1cccnc1)N1CCC(c2ccc([N+](=O)[O-])cc2)=N1 [Example 24, 1-nicotinoyl-3-(4-nitrophenyl)-2-pyrazoline] | 130 | 175 to 177 | 
12 | O=C(c1cccnc1)N1CCC(c2ccccc2[N+](=O)[O-])=N1 [Example 25, 1-nicotinoyl-3-(2-nitrophenyl)-2-pyrazoline] |  | 123 to 125 | 
13 | O=C(c1cnccn1)N1CCCC(c2ccccc2)=N1 [Example 2, 1-(2-Pyrazinoyl)-3-phenyl-1,4,5,6-tetrahydropyridazine] | 126 |  | 
14 | O=C(c1cccnc1)N1CCC(c2cccc(Cl)c2)=N1 [Example 11, 1-nicotinoyl-3-(3-chlorophenyl)-2-pyrazoline] | 140 | 124 to 126 | 
15 | Cc1ccc(C2=NN(C(=O)c3cccnc3)CC2)c(C)c1 [Example 22, 1-nicotinoyl-3-(2,4-dimethylphenyl)-2-pyrazoline] |  | 102 to 104 | 
16 | COc1ccc(C2=NN(C(=O)c3cccnc3)CC2)cc1 [Example 13, 1-nicotinoyl-3-(4-methoxyphenyl)-2-pyrazoline] | 129 | 132 to 134 | 
17 | Cc1cccc(C2=NN(C(=O)c3cccnc3)CC2)c1 [Example 20, 1-nicotinoyl-3-(3-methylphenyl)-2-pyrazoline] | 134 | 99 to 100 | 
18 | O=C(c1cccnc1)N1CCC(c2ccc(Br)cc2)=N1 [Example 9, 1-nicotinoyl-3-(4-bromophenyl)-2-pyrazoline] | 138 |  | 
19 | CS(=O)(=O)O.O=C(c1cccnc1)N1CCC(c2ccccc2)=N1 [Example 5, 1-nicotinoyl-3-phenyl-2-pyrazoline methanesulfonate] | 145 |  | Focus of cerebral infarct (mm^3) ([2]; 10 mg/kg intravenously for 24 hours from right after obstruction, control group 224.4 ± 71.5): 131.7 ± 51.6** mm^3; Mortality rate (%) [3]: 0%
20 | CCOc1ccccc1C1=NN(C(=O)c2cccnc2)CC1 [Example 18, 1-nicotinoyl-3-(2-ethoxyphenyl)-2-pyrazoline] |  | 155 to 157 | 
21 | O=C(c1cccnc1)N1CC2COc3cc(Cl)ccc3C2=N1 (stereo not shown) [Example 31, 2-nicotinoyl-7-chloro-3,3a-dihydro-2H,4H-[1]-benzopyrano[4,3-c]pyrazole] | 125 |  | 
22 | O=C(c1cccnc1)N1CCCC(c2ccccc2)=N1 [Example 1, 1-nicotinoyl-3-phenyl-1,4,5,6-tetrahydropyridazine] | 136 |  | 
23 | O=C(c1cccnc1)N1CCC(c2ccc(Cl)cc2)=N1 [Example 10, 1-nicotinoyl-3-(4-chlorophenyl)-2-pyrazoline] | 135 |  | 
24 | O=C(c1cccnc1)N1CC2COc3ccccc3C2=N1 (stereo not shown) [Example 26, 2-nicotinoyl-3,3a-dihydro-2H,4H-[1]-benzopyrano[4,3-c]pyrazole] | 131 |  | Focus of cerebral infarct (mm^3) ([2]; 50 mg/kg intraperitoneally right after and 6 hours after obstruction, control group 188.0 ± 54.8): 135.9 ± 30.5* mm^3; Mortality rate (%) [3]: 0%
25 | Cc1ccc(C2=NN(C(=O)c3cccnc3)CC2)cc1 [Example 19, 1-nicotinoyl-3-(4-methylphenyl)-2-pyrazoline] | 131 | 100 to 102 | 
26 | O=C(c1cccnc1)N1CCC(c2ccc(F)cc2)=N1 [Example 7, 1-nicotinoyl-3-(4-fluorophenyl)-2-pyrazoline] | 143 | 128 to 130 | 
